In ChEMBL document CHEMBL5678810:

Assays:
[1] = target: Casein kinase I isoform alpha (Homo sapiens) (UniProt P48729); assay: Inhibition of T7 bacteriophage fused human CSNK1A1 at 10 uM by KINOMEscan analysis relative to control
[2] = target: Casein kinase I isoform epsilon (Homo sapiens) (UniProt P49674); assay: Inhibition of T7 bacteriophage fused human CSNK1E at 10 uM by KINOMEscan analysis relative to control
[3] = target: Ephrin type-A receptor 2 (Homo sapiens) (UniProt P29317); assay: Inhibition of T7 bacteriophage fused human EPHA2 at 10 uM by KINOMEscan analysis relative to control; values are per cent of control
Chain of Ephrin type-A receptor 2 (Homo sapiens) (P29317 whole entry, the tested form may be a part): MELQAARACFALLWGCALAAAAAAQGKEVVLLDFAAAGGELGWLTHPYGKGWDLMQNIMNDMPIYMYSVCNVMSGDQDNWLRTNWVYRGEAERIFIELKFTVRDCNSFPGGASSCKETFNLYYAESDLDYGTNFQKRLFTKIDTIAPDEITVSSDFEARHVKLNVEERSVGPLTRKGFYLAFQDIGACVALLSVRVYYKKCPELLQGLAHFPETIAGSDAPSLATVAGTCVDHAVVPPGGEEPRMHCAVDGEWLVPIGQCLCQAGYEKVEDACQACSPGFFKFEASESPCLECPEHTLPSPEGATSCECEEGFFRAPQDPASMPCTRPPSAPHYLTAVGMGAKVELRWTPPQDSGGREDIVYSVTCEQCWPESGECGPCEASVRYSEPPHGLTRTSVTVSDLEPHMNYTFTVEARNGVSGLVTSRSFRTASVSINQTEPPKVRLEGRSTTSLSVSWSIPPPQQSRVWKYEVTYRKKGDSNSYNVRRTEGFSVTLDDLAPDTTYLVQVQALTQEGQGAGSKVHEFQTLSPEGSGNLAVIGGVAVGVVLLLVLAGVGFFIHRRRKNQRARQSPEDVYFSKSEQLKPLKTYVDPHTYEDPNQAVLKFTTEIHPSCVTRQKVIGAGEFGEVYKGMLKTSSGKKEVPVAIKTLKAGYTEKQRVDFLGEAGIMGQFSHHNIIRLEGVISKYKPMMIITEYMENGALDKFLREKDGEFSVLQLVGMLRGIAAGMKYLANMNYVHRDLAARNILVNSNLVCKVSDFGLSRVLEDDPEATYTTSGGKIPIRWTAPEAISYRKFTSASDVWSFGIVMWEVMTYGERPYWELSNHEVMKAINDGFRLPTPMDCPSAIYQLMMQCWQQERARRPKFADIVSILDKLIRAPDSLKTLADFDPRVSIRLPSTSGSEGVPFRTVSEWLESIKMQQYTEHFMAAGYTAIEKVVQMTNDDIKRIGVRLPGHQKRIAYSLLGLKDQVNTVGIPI

[4] = target: Serine/threonine-protein kinase B-raf (Homo sapiens) (UniProt P15056); assay: Inhibition of T7 bacteriophage fused human BRAF at 10 uM by KINOMEscan analysis relative to control
[5] = target: Mitogen-activated protein kinase 14 (Homo sapiens) (UniProt Q16539); assay: Inhibition of T7 bacteriophage fused human p38-alpha at 10 uM by KINOMEscan analysis relative to control; values are per cent of control
[6] = test system: Tyrosine-protein kinase ABL1 (Homo sapiens), P00519 [T315I]; assay: Inhibition of T7 bacteriophage fused human phosphorylated ABL1 T315I mutant at 10 uM by KINOMEscan analysis relative to control
[7] = target: Cyclin-dependent kinase 9 (Homo sapiens) (UniProt P50750); assay: Inhibition of T7 bacteriophage fused human CDK9 at 10 uM by KINOMEscan analysis relative to control
[8] = target: Ribosomal protein S6 kinase alpha-5 (Homo sapiens) (UniProt O75582); assay: Inhibition of T7 bacteriophage fused human C-terminal RPS6KA5 Kinase domain-2 at 10 uM by KINOMEscan analysis relative to control
[9] = target: Ephrin type-A receptor 3 (Homo sapiens) (UniProt P29320); assay: Inhibition of T7 bacteriophage fused human EPHA3 at 10 uM by KINOMEscan analysis relative to control
[10] = target: Mitogen-activated protein kinase kinase kinase 1 (Homo sapiens) (UniProt Q13233); assay: Inhibition of T7 bacteriophage fused human MAP3K1 at 10 uM by KINOMEscan analysis relative to control; values are per cent of control
[11] = target: Calcium/calmodulin-dependent protein kinase type 1 (Homo sapiens) (UniProt Q14012); assay: Inhibition of T7 bacteriophage fused human CAMK1 at 10 uM by KINOMEscan analysis relative to control
[12] = target: Serine/threonine-protein kinase 38-like (Homo sapiens) (UniProt Q9Y2H1); assay: Inhibition of T7 bacteriophage fused human NDR2 at 10 uM by KINOMEscan analysis relative to control
[13] = target: Serine/threonine-protein kinase PAK 1 (Homo sapiens) (UniProt Q13153); assay: Inhibition of T7 bacteriophage fused human PAK1 at 10 uM by KINOMEscan analysis relative to control
[14] = test system: Epidermal growth factor receptor (Homo sapiens), P00533 [UNDEFINED MUTATION]; assay: Inhibition of T7 bacteriophage fused human EGFR E746/A750del mutant at 10 uM by KINOMEscan analysis relative to control; values are per cent of control
Chain of Epidermal growth factor receptor (Homo sapiens), P00533 [UNDEFINED MUTATION] (P00533 whole entry, looked up, stated change not applied, the tested form may be a part): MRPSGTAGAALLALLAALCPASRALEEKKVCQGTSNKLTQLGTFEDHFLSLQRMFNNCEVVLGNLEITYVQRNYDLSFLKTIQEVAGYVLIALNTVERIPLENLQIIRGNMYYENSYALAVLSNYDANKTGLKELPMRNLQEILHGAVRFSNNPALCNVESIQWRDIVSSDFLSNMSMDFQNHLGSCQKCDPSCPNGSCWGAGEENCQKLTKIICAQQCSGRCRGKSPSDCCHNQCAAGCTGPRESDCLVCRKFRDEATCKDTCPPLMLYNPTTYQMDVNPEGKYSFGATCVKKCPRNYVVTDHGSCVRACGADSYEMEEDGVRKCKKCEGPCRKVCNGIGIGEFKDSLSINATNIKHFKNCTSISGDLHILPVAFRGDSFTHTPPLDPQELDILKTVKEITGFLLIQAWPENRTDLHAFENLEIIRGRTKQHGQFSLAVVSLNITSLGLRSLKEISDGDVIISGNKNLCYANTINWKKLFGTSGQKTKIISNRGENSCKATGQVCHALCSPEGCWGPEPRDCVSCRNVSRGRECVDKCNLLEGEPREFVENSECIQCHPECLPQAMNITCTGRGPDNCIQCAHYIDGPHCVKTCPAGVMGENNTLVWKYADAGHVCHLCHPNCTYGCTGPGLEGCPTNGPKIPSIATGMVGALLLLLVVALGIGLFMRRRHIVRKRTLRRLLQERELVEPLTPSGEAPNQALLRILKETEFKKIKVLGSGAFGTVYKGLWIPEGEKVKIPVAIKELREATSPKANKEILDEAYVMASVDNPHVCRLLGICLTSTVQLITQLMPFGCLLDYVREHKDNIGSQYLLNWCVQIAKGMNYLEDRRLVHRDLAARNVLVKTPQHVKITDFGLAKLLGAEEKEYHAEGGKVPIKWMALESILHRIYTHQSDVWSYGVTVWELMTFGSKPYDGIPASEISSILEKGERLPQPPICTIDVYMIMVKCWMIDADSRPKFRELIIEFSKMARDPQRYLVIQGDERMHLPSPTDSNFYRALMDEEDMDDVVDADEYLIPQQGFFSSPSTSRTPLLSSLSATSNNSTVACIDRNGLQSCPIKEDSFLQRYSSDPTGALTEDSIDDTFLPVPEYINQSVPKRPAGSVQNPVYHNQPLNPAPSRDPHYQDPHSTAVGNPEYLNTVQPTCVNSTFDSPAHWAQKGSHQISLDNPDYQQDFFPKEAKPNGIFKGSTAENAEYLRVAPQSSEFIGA

[15] = target: Mitogen-activated protein kinase 6 (Homo sapiens) (UniProt Q16659); assay: Inhibition of T7 bacteriophage fused human ERK3 at 10 uM by KINOMEscan analysis relative to control
[16] = target: Serine/threonine-protein kinase pim-2 (Homo sapiens) (UniProt Q9P1W9); assay: Inhibition of T7 bacteriophage fused human PIM2 at 10 uM by KINOMEscan analysis relative to control
Chain of Serine/threonine-protein kinase pim-2 (Homo sapiens) (Q9P1W9 whole entry, looked up, the tested form may be a part): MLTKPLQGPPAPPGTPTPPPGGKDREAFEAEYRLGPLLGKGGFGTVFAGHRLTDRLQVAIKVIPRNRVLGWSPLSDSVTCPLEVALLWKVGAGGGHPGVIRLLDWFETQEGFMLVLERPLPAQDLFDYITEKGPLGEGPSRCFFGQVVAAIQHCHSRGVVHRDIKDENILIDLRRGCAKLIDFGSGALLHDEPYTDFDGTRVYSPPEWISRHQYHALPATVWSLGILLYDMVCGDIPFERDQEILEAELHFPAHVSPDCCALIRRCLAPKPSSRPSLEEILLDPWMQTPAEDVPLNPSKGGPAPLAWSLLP

[17] = target: Tyrosine-protein kinase Fes/Fps (Homo sapiens) (UniProt P07332); assay: Inhibition of T7 bacteriophage fused human FES at 10 uM by KINOMEscan analysis relative to control; values are per cent of control
[18] = target: Serine/threonine-protein kinase MARK2 (Homo sapiens) (UniProt Q7KZI7); assay: Inhibition of T7 bacteriophage fused human MARK2 at 10 uM by KINOMEscan analysis relative to control
Chain of Serine/threonine-protein kinase MARK2 (Homo sapiens) (Q7KZI7 whole entry, the tested form may be a part): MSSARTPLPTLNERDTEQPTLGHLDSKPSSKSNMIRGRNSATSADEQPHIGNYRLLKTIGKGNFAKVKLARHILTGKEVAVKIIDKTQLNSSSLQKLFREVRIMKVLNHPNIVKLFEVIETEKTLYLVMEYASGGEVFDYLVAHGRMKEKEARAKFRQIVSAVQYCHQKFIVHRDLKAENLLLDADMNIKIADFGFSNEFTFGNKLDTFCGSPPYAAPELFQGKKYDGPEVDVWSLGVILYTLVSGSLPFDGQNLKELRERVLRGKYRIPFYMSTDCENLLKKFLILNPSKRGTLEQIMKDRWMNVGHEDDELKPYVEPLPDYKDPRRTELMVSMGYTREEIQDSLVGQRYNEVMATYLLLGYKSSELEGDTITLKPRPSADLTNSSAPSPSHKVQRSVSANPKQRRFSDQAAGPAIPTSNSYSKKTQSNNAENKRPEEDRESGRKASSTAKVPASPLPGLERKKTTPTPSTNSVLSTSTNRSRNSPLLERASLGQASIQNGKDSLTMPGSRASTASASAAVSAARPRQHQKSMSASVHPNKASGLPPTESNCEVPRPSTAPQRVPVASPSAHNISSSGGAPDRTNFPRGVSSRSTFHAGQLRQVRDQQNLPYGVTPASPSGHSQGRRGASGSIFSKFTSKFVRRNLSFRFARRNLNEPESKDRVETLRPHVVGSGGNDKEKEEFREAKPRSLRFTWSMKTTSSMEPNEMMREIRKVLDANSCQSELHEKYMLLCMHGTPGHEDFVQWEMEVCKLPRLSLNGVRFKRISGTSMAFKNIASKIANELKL

[19] = test system: Fibroblast growth factor receptor 3 (Homo sapiens), P22607 [G697C]; assay: Inhibition of T7 bacteriophage fused human FGFR3 G697C mutant at 10 uM by KINOMEscan analysis relative to control
[20] = target: Receptor tyrosine-protein kinase erbB-3 (Homo sapiens) (UniProt P21860); assay: Inhibition of T7 bacteriophage fused human ERBB3 at 10 uM by KINOMEscan analysis relative to control
[21] = target: Mitogen-activated protein kinase kinase kinase 9 (Homo sapiens) (UniProt P80192); assay: Inhibition of T7 bacteriophage fused human MLK1 at 10 uM by KINOMEscan analysis relative to control; values are per cent of control
[22] = target: Mitogen-activated protein kinase kinase kinase 3 (Homo sapiens) (UniProt Q99759); assay: Inhibition of T7 bacteriophage fused human MAP3K3 at 10 uM by KINOMEscan analysis relative to control
[23] = target: Mitogen-activated protein kinase 1 (Homo sapiens) (UniProt P28482); assay: Inhibition of T7 bacteriophage fused human ERK2 at 10 uM by KINOMEscan analysis relative to control; values are per cent of control
[24] = target: Vascular endothelial growth factor receptor 3 (Homo sapiens) (UniProt P35916); assay: Inhibition of T7 bacteriophage fused human FLT4 at 10 uM by KINOMEscan analysis relative to control
[25] = target: Discoidin domain-containing receptor 2 (Homo sapiens) (UniProt Q16832); assay: Inhibition of T7 bacteriophage fused human DDR2 at 10 uM by KINOMEscan analysis relative to control
[26] = target: Hormonally up-regulated neu tumor-associated kinase (Homo sapiens) (UniProt P57058); assay: Inhibition of T7 bacteriophage fused human HUNK at 10 uM by KINOMEscan analysis relative to control
[27] = test system: Receptor-type tyrosine-protein kinase FLT3 (Homo sapiens), P36888 [K663Q]; assay: Inhibition of T7 bacteriophage fused human FLT3 K663Q mutant at 10 uM by KINOMEscan analysis relative to control
[28] = target: RAC-gamma serine/threonine-protein kinase (Homo sapiens) (UniProt Q9Y243); assay: Inhibition of T7 bacteriophage fused human AKT3 at 10 uM by KINOMEscan analysis relative to control
[29] = target: Rho-associated protein kinase 2 (Homo sapiens) (UniProt O75116); assay: Inhibition of T7 bacteriophage fused human ROCK2 at 10 uM by KINOMEscan analysis relative to control
[30] = target: AP2-associated protein kinase 1 (Homo sapiens) (UniProt Q2M2I8); assay: Inhibition of T7 bacteriophage fused human AAK1 at 10 uM by KINOMEscan analysis relative to control
Chain of AP2-associated protein kinase 1 (Homo sapiens) (Q2M2I8 whole entry, looked up, the tested form may be a part): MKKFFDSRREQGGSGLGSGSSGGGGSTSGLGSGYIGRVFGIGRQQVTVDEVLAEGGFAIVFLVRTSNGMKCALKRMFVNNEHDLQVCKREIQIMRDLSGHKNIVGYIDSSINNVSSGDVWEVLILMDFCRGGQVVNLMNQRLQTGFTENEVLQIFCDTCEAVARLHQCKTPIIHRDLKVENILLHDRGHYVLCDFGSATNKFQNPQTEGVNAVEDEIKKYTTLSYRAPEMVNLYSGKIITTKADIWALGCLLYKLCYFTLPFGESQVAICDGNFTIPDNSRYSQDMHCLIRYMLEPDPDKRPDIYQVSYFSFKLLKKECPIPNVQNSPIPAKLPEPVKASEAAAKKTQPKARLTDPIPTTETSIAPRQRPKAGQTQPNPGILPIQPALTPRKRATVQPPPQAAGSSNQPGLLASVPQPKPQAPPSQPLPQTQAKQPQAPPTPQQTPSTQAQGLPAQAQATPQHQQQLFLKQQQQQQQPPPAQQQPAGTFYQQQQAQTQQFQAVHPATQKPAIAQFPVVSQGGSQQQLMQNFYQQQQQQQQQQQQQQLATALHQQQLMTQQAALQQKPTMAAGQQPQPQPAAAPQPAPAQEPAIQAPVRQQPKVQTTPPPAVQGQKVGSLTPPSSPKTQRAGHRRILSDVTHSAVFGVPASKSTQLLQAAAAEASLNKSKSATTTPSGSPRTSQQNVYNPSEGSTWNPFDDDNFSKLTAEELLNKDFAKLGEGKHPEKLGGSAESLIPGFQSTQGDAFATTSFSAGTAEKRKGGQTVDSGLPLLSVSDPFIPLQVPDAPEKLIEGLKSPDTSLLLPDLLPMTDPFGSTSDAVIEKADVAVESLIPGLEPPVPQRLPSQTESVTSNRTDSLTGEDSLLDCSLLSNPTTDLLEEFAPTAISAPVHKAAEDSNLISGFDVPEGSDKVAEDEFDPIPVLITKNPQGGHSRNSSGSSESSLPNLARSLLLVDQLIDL

Chain of Casein kinase I isoform alpha (Homo sapiens) (P48729 2-337 limits assumed): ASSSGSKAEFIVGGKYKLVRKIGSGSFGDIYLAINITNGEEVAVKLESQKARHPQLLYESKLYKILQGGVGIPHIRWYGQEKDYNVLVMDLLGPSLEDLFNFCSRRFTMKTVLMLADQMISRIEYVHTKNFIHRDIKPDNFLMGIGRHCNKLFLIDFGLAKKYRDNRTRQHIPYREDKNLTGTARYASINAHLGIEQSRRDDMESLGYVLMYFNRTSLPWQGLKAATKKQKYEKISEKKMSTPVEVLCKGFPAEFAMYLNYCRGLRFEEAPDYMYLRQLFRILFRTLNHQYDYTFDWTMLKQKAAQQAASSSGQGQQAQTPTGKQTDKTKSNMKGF
Chain of Casein kinase I isoform epsilon (Homo sapiens) (P49674 whole entry, looked up, the tested form may be a part, canonical isoform): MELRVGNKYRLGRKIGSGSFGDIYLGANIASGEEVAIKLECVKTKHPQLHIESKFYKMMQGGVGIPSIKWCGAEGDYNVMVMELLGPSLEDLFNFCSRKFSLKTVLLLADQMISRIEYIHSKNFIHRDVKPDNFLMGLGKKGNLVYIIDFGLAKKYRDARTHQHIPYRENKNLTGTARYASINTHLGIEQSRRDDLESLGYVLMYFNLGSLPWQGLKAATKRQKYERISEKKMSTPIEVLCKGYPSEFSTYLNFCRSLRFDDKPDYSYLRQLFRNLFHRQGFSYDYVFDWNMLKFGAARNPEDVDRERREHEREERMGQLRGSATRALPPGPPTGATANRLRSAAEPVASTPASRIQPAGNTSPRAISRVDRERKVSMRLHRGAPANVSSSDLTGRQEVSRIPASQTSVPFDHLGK

COc1cc(N2CCC(N3CCN(C)CC3)CC2)ccc1Nc1ncc2c(n1)N(C)c1ccccc1C(=O)N2C
inhibition [1]: 100% | inhibition [2]: 95% | residual activity [3]: 92% | inhibition [4]: 81% | residual activity [5]: 87% | inhibition [6]: 58% | inhibition [7]: 100% | inhibition [8]: 92% | inhibition [9]: 100% | residual activity [10]: 95% | inhibition [11]: 55% | inhibition [12]: 100% | inhibition [13]: 95% | residual activity [14]: 72% | inhibition [15]: 100% | inhibition [16]: 100% | residual activity [17]: 84% | inhibition [18]: 100% | inhibition [19]: 85% | inhibition [20]: 100% | residual activity [21]: 93% | inhibition [22]: 97% | residual activity [23]: 85% | inhibition [24]: 100% | inhibition [25]: 100% | inhibition [26]: 100% | inhibition [27]: 97% | inhibition [28]: 100% | inhibition [29]: 87% | inhibition [30]: 84%
